The subject of one assay is MV4-11 cells. As to the kind of experiment: Inhibition of MV4-11 cell proliferation (CellTiterGlo, 72 h). It counts as cell-based. The conditions noted are these: Homo sapiens; 72 h growth inhibition. Here is the method: To assess the cellular potency of the FLT3 inhibitors of Formula I′, FLT3 specific growth inhibition was measured in the leukemic cell line MV4-11 (ATCC Number: CRL-9591). […] MV4-11 cells cannot grow and survive without active FLT3ITD.
To measure proliferation inhibition by test compounds, the luciferase based CellTiterGlo reagent (Promega), which quantifies total cell number based on total cellular ATP concentration, was used. Cells are plated at 10,000 cells per well in 100 ul of in RPMI media containing penn/strep, 10% FBS and 1 ng/ml GM-CSF or 1 ng/ml IL-3 for MV4-11 and Baf3 cells respectively.
Compound dilutions or 0.1% DMSO (vehicle control) are added to cells and the cells are allowed to grow for 72 hours at standard cell growth conditions (37° C., 5% CO2). For activity measurements in MV4-11 cells grown in 50% plasma, cells were plated at 10,000 cells per well in a 1:1 mixture of growth media and human plasma (final volume of 100 μL). To measure total cell growth an equal volume of CellTiterGlo reagent was added to each well, according to the manufacturer's instructions, and luminescence was quantified. Total cell growth was quantified as the difference in luminescent counts (relative light units, RLU) of cell number at Day 0 compared to total cell number at Day 3 (72 hours of growth and/or compound treatment). One hundred percent inhibition of growth is defined as an RLU equivalent to the Day 0 reading. Zero percent inhibition was defined as the RLU signal for the DMSO vehicle control at Day 3 of growth. All data points are an average of triplicate samples. […] Inhibition and IC50 data analysis was done with GraphPad Prism using a non-linear regression fit with a multiparamater, sigmoidal dose-response (variable slope) equation.
MV4-11 cells express the FLT3 internal tandem duplication mutation, and thus are entirely dependent upon FLT3 activity for growth. […] In contrast, the Baf3 cell proliferation is driven by the cytokine IL-3 and thus are used as a non-specific toxicity control for test compounds.

The target of assay [1] is T1, wild-type FLT3 phosphorylation in Baf3 FLT3 cells (Homo sapiens, UniProt P36888).
T1 construct: host or cells: Baf3 (murine B cell lymphoma line)
T1 sequence (P36888 27-993): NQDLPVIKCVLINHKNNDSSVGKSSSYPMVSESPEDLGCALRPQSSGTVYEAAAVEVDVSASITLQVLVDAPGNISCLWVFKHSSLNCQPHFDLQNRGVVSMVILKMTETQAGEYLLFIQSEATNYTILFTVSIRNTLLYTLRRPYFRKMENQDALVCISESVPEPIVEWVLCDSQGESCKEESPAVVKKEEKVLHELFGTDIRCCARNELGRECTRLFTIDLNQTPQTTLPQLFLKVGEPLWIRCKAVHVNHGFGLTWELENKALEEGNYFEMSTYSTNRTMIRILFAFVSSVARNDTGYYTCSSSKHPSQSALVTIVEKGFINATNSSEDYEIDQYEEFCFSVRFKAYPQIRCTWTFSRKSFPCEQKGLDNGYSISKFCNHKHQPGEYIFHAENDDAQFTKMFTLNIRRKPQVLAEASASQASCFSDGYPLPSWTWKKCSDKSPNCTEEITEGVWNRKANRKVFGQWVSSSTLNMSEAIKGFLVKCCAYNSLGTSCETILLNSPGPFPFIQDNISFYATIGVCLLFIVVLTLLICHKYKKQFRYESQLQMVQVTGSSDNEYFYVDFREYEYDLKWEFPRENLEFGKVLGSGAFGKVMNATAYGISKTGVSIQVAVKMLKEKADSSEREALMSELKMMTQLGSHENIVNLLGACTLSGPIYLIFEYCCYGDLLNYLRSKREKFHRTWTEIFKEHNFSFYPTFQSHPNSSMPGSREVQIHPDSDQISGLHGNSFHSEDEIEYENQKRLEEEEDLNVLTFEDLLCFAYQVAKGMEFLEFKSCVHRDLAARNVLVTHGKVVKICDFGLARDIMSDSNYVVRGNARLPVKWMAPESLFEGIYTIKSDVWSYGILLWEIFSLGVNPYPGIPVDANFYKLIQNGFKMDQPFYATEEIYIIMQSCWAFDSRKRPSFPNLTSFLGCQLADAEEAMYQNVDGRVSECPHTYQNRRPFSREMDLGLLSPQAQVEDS
As to the kind of experiment: Cell-based FLT3 receptor ELISA. To be noted: FLT ligand-induced FLT3 phosphorylation. Here is the method:
Specific cellular inhibition of FLT ligand-induced wild-type FLT3 phosphorylation was measured in the following manner: Baf3 FLT3 cells overexpressing the FLT3 receptor were obtained from Dr. Michael Heinrich (Oregon Health and Sciences University). The Baf3 FLT3 cell lines were created by stable transfection of parental Baf3 cells (a murine B cell lymphoma line dependent on the cytokine IL-3 for growth) with wild-type FLT3. Cells were selected for their ability to grow in the absence of IL-3 and in the presence of FLT3 ligand.
Baf3 cells were maintained in RPMI 1640 with 10% FBS, penn/strep and 10 ng/ml FLT ligand at 37° C., 5% CO2. To measure direct inhibition of the wild-type FLT3 receptor activity and phosphorylation a sandwich ELISA method was developed similar to those developed for other RTKs (see Sadick, M D, Sliwkowski, M X, Nuijens, A, Bald, L, Chiang, N, Lofgren, J A, Wong W L T. Analysis of Heregulin-Induced ErbB2 Phosphorylation with a High-Throughput Kinase Receptor Activation Enzyme-Linked Immunsorbent Assay, Analytical Biochemistry. 1996; 235:207-214 and Baumann C A, Zeng L, Donatelli R R, Maroney A C. Development of a quantitative, high-throughput cell-based enzyme-linked immunosorbent assay for detection of colony-stimulating factor-1 receptor tyrosine kinase inhibitors. J Biochem Biophys Methods. 2004; 60:69-79.). 200 μL of Baf3FLT3 cells (1×10^6/mL) were plated in 96 well dishes in RPMI 1640 with 0.5% serum and 0.01 ng/mL IL-3 for 16 hours prior to 1 hour compound or DMSO vehicle incubation. Cells were treated with 100 ng/mL Flt ligand (R&D Systems Cat# 308-FK) for 10 min. at 37° C. Cells were pelleted, washed and lysed in 100 ul lysis buffer (50 mM Hepes, 150 mM NaCl, 10% Glycerol, 1% Triton-X-100, 10 mM NaF, 1 mM EDTA, 1.5 mM MgCl2, 10 mM NaPyrophosphate) supplemented with phosphatase (Sigma Cat# P2850) and protease inhibitors (Sigma Cat #P8340). Lysates were cleared by centrifugation at 1000×g for 5 minutes at 4° C. Cell lysates were transferred to white wall 96 well microtiter (Costar #9018) plates coated with 50 ng/well anti-FLT3 antibody (Santa Cruz Cat# sc-480) and blocked with SeaBlock reagent (Pierce Cat#37527). Lysates were incubated at 4° C. for 2 hours. Plates were washed 3× with 200 ul/well PBS/0.1% Triton-X-100. Plates were then incubated with 1:8000 dilution of HRP-conjugated anti-phosphotyrosine antibody (Clone 4G10, Upstate Biotechnology Cat#16-105) for 1 hour at room temperature. Plates were washed 3× with 200 ul/well PBS/0.1% Triton-X-100. Signal detection with Super Signal Pico reagent (Pierce Cat#37070) was done according to manufacturer's instruction with a Berthold microplate luminometer. All data points are an average of triplicate samples. […] Inhibition and IC50 data analysis was done with GraphPad Prism using a non-linear regression fit with a multiparamater, sigmoidal dose-response (variable slope) equation.

On to `COc1cc2ncnc(N3CCC(COC(=O)Nc4ccc(C(C)C)cc4)CC3)c2cc1OC` [Compound 22, (4-Isopropyl-phenyl)-carbamic acid 1-(6,7-dimethoxy-quinazolin-4-yl)-piperidin-4-ylmethyl ester], for which the figures for the IC50 (with MV4-11 cells; in assay [1]) were 1.7 µM and 0.082 µM, respectively. Consider `CC(C)Oc1ccc(NC(=O)OC2CCN(c3ccnc4ccccc34)CC2)cc1` [Compound 41], for which the IC50 (usually the concentration that inhibits the measured activity by half) in the assay on MV4-11 cells was > 10 µM.

For the compound `COc1cc2ncc(C#N)c(N3CCC(OC(=O)Nc4ccc(C(C)C)cc4)CC3)c2cc1OC` [Compound 42, (4-Isopropyl-phenyl)-carbamic acid 1-(3-cyano-6,7-dimethoxy-quinolin-4-yl)-piperidin-4-yl ester], the 50% inhibitory concentration (IC50) in the assay on MV4-11 cells came to 2.1 µM. For `COc1cc2ncnc(N3CCC(NC(=O)Nc4ccc(N5CCOCC5)cc4)C3)c2cc1OC` (stereo not shown) [Compound 43, 1-[1-(6,7-Dimethoxy-quinazolin-4-yl)-pyrrolidin-3-yl]-3-(4-morpholin-4-yl-phenyl)-urea], the IC50 with MV4-11 cells is > 5 µM. For the compound `COc1cc2ncnc(N3CCC(NC(=O)Nc4ccc(OC5CCC5)nc4)C3)c2cc1OC` (stereo not shown) [Compound 44, 1-(6-Cyclobutoxy-pyridin-3-yl)-3-[1-(6,7-dimethoxy-quinazolin-4-yl)-pyrrolidin-3-yl]-urea], half-maximal inhibition in the assay on MV4-11 cells (IC50) required 1 µM.

With `COc1cc2ncnc(N3CCC(NC(=O)Nc4ccc(OC5CCCC5)nc4)C3)c2cc1OC` (stereo not shown) [Compound 45, 1-(6-Cyclopentyloxy-pyridin-3-yl)-3-[1-(6,7-dimethoxy-quinazolin-4-yl)-pyrrolidin-3-yl]-urea], in the assay on MV4-11 cells, the IC50 worked out at 1.1 µM. Still for that read-out and setting: the value for `COc1cc2ncnc(N3CCC(NC(=O)Nc4ccc(N5CCCC5)nc4)C3)c2cc1OC` (stereo not shown) [Compound 46, 1-[1-(6,7-Dimethoxy-quinazolin-4-yl)-pyrrolidin-3-yl]-3-(6-pyrrolidin-1-yl-pyridin-3-yl)-urea] was 3.5 µM; that for `COc1cc2ncnc(N3CCC(NC(=O)Nc4ccc(N5CCCCC5)cc4)C3)c2cc1OC` (stereo not shown) [Compound 47, 1-[1-(6,7-Dimethoxy-quinazolin-4-yl)-pyrrolidin-3-yl]-3-(4-piperidin-1-yl-phenyl)-urea] was 3.9 µM; that for `COc1cc2ncnc(N3CCC(NC(=O)Nc4ccc(Cl)cc4)C3)c2cc1OC` (stereo not shown) [Compound 48, 1-(4-Chloro-phenyl)-3-[1-(6,7-dimethoxy-quinazolin-4-yl)-pyrrolidin-3-yl]-urea] was 2.5 µM. Same read-out and setting: the value for `COc1cc2ncnc(N3CCC(NC(=O)Nc4ccc(C5CCCCC5)cc4)C3)c2cc1OC` (stereo not shown) [Compound 50, 1-(4-Cyclohexyl-phenyl)-3-[1-(6,7-dimethoxy-quinazolin-4-yl)-pyrrolidin-3-yl]-urea] was 1.7 µM; that for `COc1cc2ncnc(N3CCC(NC(=O)Nc4ccc(Oc5ccccc5)cc4)C3)c2cc1OC` (stereo not shown) [Compound 51, 1-[1-(6,7-Dimethoxy-quinazolin-4-yl)-pyrrolidin-3-yl]-3-(4-phenoxy-phenyl)-urea] was 1.2 µM. Turning to `COc1cc2ncnc(N3CCC(NC(=O)Nc4ccc(N(C)C)cc4)C3)c2cc1OC` (stereo not shown) [Compound 52, 1-[1-(6,7-Dimethoxy-quinazolin-4-yl)-pyrrolidin-3-yl]-3-(4-dimethylamino-phenyl)-urea], the half-inhibitory concentration (IC50) in the assay on MV4-11 cells was 0.83 µM; in assay [1] it was 6.6 µM. On to `COc1cc2ncnc(N3CCC(NC(=O)Nc4ccc(OC5CCCC5)cc4)C3)c2cc1OC` (stereo not shown) [Compound 53, 1-(4-Cyclopentyloxy-phenyl)-3-[1-(6,7-dimethoxy-quinazolin-4-yl)-pyrrolidin-3-yl]-urea], for which, in the assay on MV4-11 cells, half-maximal inhibition (IC50) required 1.5 µM.

In the assay on MV4-11 cells, `COc1cc2ncnc(N3CCC(OC(=O)Nc4ccc(OC5CCCC5)cc4)C3)c2cc1OC` (stereo not shown) [Compound 54, (4-Cyclopentyloxy-phenyl)-carbamic acid 1-(6,7-dimethoxy-quinazolin-4-yl)-pyrrolidin-3-yl ester] showed a half-maximal inhibitory concentration (IC50) of 1.5 µM. As for `COc1cc2ncnc(N3CCC(OC(=O)Nc4ccc(OC5CCCC5)cc4)CC3)c2cc1OC` [Compound 55, (4-Cyclopentyloxy-phenyl)-carbamic acid 1-(6,7-dimethoxy-quinazolin-4-yl)-piperidin-4-yl ester], the IC50 worked out at 0.56 µM with MV4-11 cells and 0.42 µM in assay [1]. With `COc1cc2ncnc(N3CCC(COC(=O)Nc4ccc(OC5CCCC5)cc4)CC3)c2cc1OC` [Compound 56, (4-Cyclopentyloxy-phenyl)-carbamic acid 1-(6,7-dimethoxy-quinazolin-4-yl)-piperidin-4-ylmethyl ester], in the assay on MV4-11 cells, the concentration for half-maximal inhibition (IC50) is 0.74 µM. As to `COc1cc2ncnc(N3CCCC(COC(=O)Nc4ccc(OC5CCCC5)cc4)C3)c2cc1OC` (stereo not shown) [Compound 57, (4-Cyclopentyloxy-phenyl)-carbamic acid 1-(6,7-dimethoxy-quinazolin-4-yl)-piperidin-3-ylmethyl ester], the IC50 worked out at 0.172 µM in the assay with MV4-11 cells and 0.046 µM in assay [1].

With `COc1cc2ncnc(N3CCC(NC(=O)Nc4ccc(Cl)cc4)CC3)c2cc1OC` [Compound 61, 1-(4-Chloro-phenyl)-3-[1-(6,7-dimethoxy-quinazolin-4-yl)-piperidin-4-yl]-urea], half-maximal inhibition with MV4-11 cells (IC50) required 9.4 µM.

For the origin of these results see patent US20060281771A1, “SYNERGISTIC MODULATION OF FLT3 KINASE USING AMINOQUINOLINE AND AMINOQUINAZOLINE KINASE MODULATORS” (priority 2005, published 2006).
